Like-named read-outs stand apart in the source and are kept apart here.
Experiments:
[1] = tested on: hypoxia-exposed and room-air Sprague-Dawley rats; format: in vivo, rat; details: for mean RVP compared to the veh-hyp group: hypoxia 10 days (FIG. 7)
Method: Outbred 6-week-old Sprague-Dawley rats, 200-220 g body weight, were obtained from Hilltop Laboratories, Scottdale, Pa. Recombinant human relaxin (rhRlx) (5.0 mg/ml in 20 mM sodium acetate, pH5.0) and vehicle (20 mM acetate, pH5.0) were provided by Connetics Corporation (Palo Alto, Calif.). Miniosmotic pumps were purchased from Alza Corporation (Model 2002, Alza Corp., Palo Alto, Calif.).
Mini osmotic pumps were filled to deliver rhRlx at […], or vehicle alone. Osmotic pumps were inserted subcutaneously in rats under a combination of ketamine and xylazine anaesthesia. The area around the back of the neck was shaved, cleaned with alcohol, and a small incision made for pump insertion. Incision was closed with surgical staples. After the animals were fully conscious they were randomly assigned to either hypoxic exposure or room air. Rats were subjected to either air or hypoxia, as described below. There were three groups of rats subjected to air: vehicle-treated (veh-air), 0.05 mg/kg/day rhRlx (low rhRlx-air), and 0.24 mg/kg/day rhRlx (hi rhRlx-air). There were three groups subjected to hypoxia: vehicle (veh-hyp), 0.05 mg/kg/day rhRlx (low rhRlx-hyp), and 0.24 mg/kg/day rhRlx (hi rhRlx-hyp).
Rats were exposed to hypoxia (10% O2, 90% N2) at ambient pressure (Kerr et al., 1987) for 10 days, control groups were exposed to room air in the same room. Hypoxic animals were fed standard rat chow and water. Age-matched control groups were weight-matched by feeding the amount of food consumed by the rats in the hypoxic groups. At the end of the test period, mean right ventricular pressure (RVP) was measured in rats anaesthetized with an intraperitoneal injection of 50 mg/kg pentobarbital sodium. The portal vein was then cut for hematocrit measurement (Hct) and blood sampling, and the ratio of the right ventricle to left ventricle plus septum measured [RV/(LV+S)] (Kerr et al., 1987). To determine the effect of acute administration of rhRlx on pulmonary artery pressure, four 10-day hypoxic rats were anaesthetized, as previously described, and RVP monitored for 1 hr following administration of a bolus dose of 2 μg rhRlx in 0.2 ml total volume, followed by an infusion of 2 μg rhRlx in 0.2 ml, given over 10 min.
The pulmonary artery trunk, right and left extrapulmonary branches were removed en bloc, cleaned of surrounding tissue, and weighed. The left lung was and excised and the entire hilar artery dissected from parenchyma and weighed (Tozzi et al. (1994) Am. J. Respir. Crit. Care Med. 149:1316-1326). Segments were hydrolyzed, and total hydroxyproline and protein determined (Poiani et al. (1990) Circ. Res. 66:968-978). Approximately 3 cc of whole blood was centrifuged, serum aspirated, and sample frozen at −20° C. for determination of rRlx levels by ELISA assay.

[2] = tested on: Female Sprague-Dawley rats; assay: Kidney function in cyclosporine-treated rats; format: in vivo, rat; details: for GFR / Urine Flow: Normal = 1.0
Method: Relaxin (rhRlx) was administrated via subcutaneous pumps at dose of either 0.1 mg/kg/day or 0.5 mg/kg/day for 10 days (day 0-10). On day B2 (baseline), Day 4, and Day 9, all rats were put into metabolic cages. The 24-hour urine volume was measured to calculate urine flow rate using the following formula: […]
Blood and urine were collected for creatinine measurement to calculate the GFR using the following formula: […]

[3] = tested on: rat aortic endothelial cells; assay: 3H-thymidine uptake, rat endothelial cells; format: cell-based; details: serum-free medium
Method: Endothelial cells were derived from explant cultures of human neonatal foreskin and rat aorta. Primary human endothelial cells from umbilical vein, aorta, and lung were purchased from Clonetics-BioWhittaker Corporation (San Diego, Calif.) and cultured according to vendor instructions. ^3H-thymidine uptake was performed, as previously described, in serum-free medium. Unemori et al. (1994) Exp. Cell Res. 21:166-171.
Relaxin was then assayed for the ability to induce proliferation of endothelial cells directly. Relaxin's potential mitogenic effect was tested on human primary umbilical vein, aortic, foreskin, and pulmonary endothelial cells, as well as rat aortic endothelial cells. […] Alterations in other aspects of endothelial cell phenotype that are believed to correlate with angiogenesis were also tested. Relaxin had no effect on collagen expression, judged by SDS-PAGE of ^3H-proline-labeled cellular proteins; or metalloproteinase or tissue inhibitor of metalloproteinase-1 secretion, assessed by gelatin zymography. […] Therefore, relaxin had no apparent effect directly on endothelial cells.

[4] = tested on: endothelial cells; assay: Binding of 32P-labelled relaxin to endothelial cells
[5] = tested on: Rat aortic adventitial fibroblasts; assay: Collagen and fibronectin expression by adventitial fibroblasts; format: cell-based; details: rhRlx 10 ng/ml
Method: Aortic adventitial fibroblasts from normal adult Sprague/Dawley rats were explanted by carefully dissecting the adventitia away from the media and culturing 1 mm^3 pieces in Dulbecco's modified Eagles Medium (DMEM), plus 10% bovine fetal calf serum. When cultures were confluent, fibroblasts were dispersed with trypsin and passaged once prior to use in experiments. Fibroblasts were seeded at 10^5 cells/cm^2 in DMEM+10% FBS in 48-well plates for experiments and assayed for collagen and fibronectin expression, as previously described (Unemori et al. (1996) J. Clin. Invest. 98:2739-2745). […] Half of the cultures were also treated simultaneously with 10 ng/ml of rhRlx. Proteins were biosynthetically labeled with ^3H-proline (25 μCi/ml) (Amersham Corp., Arlington Heights, Ill.), in the presence of ascorbate (50 μg/ml) and β-aminopropionitrile (80 μg/ml), and conditioned media collected 24 hours later. Media were electrophoresed on SDS-PAGE, and the density of collagen and fibronectin bands was determined by densitometric scanning using a digital imaging system (Alpha Innotech Corp, San Leandro, Calif.).

[6] = CsA and rhRlx at either 0.1 mg/kg or 0.5 mg/kg
[7] = Normal rats + 0.5 mg/kg, Day 10

rhRLX: recombinant human relaxin, identical in amino acid sequence to the product of the human H2 gene; A chain of 24, B chain of 29 amino acids
Hydroxyproline Hilar ([1]; 1 mg-air): 38.0 ± 2.3 μg/vessel | Hydroxyproline MPA ([1]; 1 mg-air): 76.4 ± 4.0 μg/vessel | Protein Hilar ([1]; 1 mg-air): 0.78 ± 0.3 mg/vessel | Protein MPA ([1]; 1 mg-air): 2.6 ± 0.2 mg/vessel | Hydroxyproline Hilar ([1]; 1 mg-hyp): 41.0 ± 3.3 μg/vessel | Hydroxyproline MPA ([1]; 1 mg-hyp): 95.2 ± 3.6 μg/vessel | Protein Hilar ([1]; 1 mg-hyp): 0.90 ± 0.2 mg/vessel | Protein MPA ([1]; 1 mg-hyp): 2.3 ± 0.2 mg/vessel | Hydroxyproline Hilar ([1]; 5 mg-air): 33.5 ± 1.5 μg/vessel | Hydroxyproline MPA ([1]; 5 mg-air): 75.2 ± 4.0 μg/vessel | Protein Hilar ([1]; 5 mg-air): 1.1 ± 0.1 mg/vessel | Protein MPA ([1]; 5 mg-air): 2.5 ± 0.3 mg/vessel | Hydroxyproline Hilar ([1]; 5 mg-hyp): 37.0 ± 5.0*↑ μg/vessel | Hydroxyproline MPA ([1]; 5 mg-hyp): 86.6 ± 6.0*↑ μg/vessel | Protein Hilar ([1]; 5 mg-hyp): 0.75 ± 0.8 mg/vessel | Protein MPA ([1]; 5 mg-hyp): 2.0 ± 0.4 mg/vessel | RV/(LV+S) ratio compared to the veh-hyp group ([1]; hi rhRlx-hyp): significantly reduced | mean RVP compared to the veh-hyp group ([1]; high dose): decreased | mean RVP compared to the veh-hyp group ([1]; low dose): decreased | RV/(LV+S) ratio compared to the veh-hyp group ([1]; low rhRlx-hyp): significantly reduced | GFR ([2]; CsA + 0.1 mg/kg, Day 5): 0.99 ± 0.15 | Urine Flow ([2]; CsA + 0.1 mg/kg, Day 5): 1.21 ± 0.36 | GFR ([2]; CsA + 0.1 mg/kg, Day 10): 1.49 ± 0.18 | Urine Flow ([2]; CsA + 0.1 mg/kg, Day 10): 1.59 ± 0.41 | GFR ([2]; CsA + 0.5 mg/kg, Day 5): 1.231 ± 0.15 | Urine Flow ([2]; CsA + 0.5 mg/kg, Day 5): 1.27 ± 0.16 | GFR ([2]; CsA + 0.5 mg/kg, Day 10): 1.39 ± 0.13 | Urine Flow ([2]; CsA + 0.5 mg/kg, Day 10): 1.067 ± 0.11 | creatinine clearance compared to animals treated with CsA alone [2, 6]: significantly improved | urine flow rate compared to animals treated with CsA alone [2, 6]: significantly improved | GFR ([2]; Normal rats + 0.5 mg/kg, Day 5): 1.47 ± 0.08 | Urine Flow ([2]; Normal rats + 0.5 mg/kg, Day 5): 1.68 ± 0.02 | GFR [2, 7]: 1.50 ± 0.09 | Urine Flow [2, 7]: 1.42 ± 0.01 | creatinine clearance compared to the baseline ([2]; normal rats, 0.5 mg/kg, day 5): 147% | urine flow rate compared to the baseline ([2]; normal rats, 0.5 mg/kg, day 5): 168% | 3H-thymidine uptake [3]: did not alter | binding of 32P-labelled relaxin to endothelial cells [4]: could not be detected | decrease of TGF-β-induced fibronectin over-expression [5]: 28±6% | inhibition of TGF-β-induced collagen over-expression [5]: 21±5%

From patent US6723702B2, “Use of relaxin treat diseases related to vasoconstriction” (RAS Medical, Inc., priority 2000, dated 2004)
